Measured values published in PMC7700809 (Molecular Biomedicine, 2020).
Like-named read-outs stand apart in the source and are kept apart here.

Experiments:
[1] = mice
[2] = system: SARS-CoV-2 specific nucleocapsid; assay: Western blot analysis of nucleocapsid level in Vero cells; format: cell-based
SARS-CoV-2 = assay: microbe, parasite or virus in culture; format: cell-based; conditions: Severe acute respiratory syndrome coronavirus 2, Vero; read-out: EC50 virus entry blocking
[3] = Lung distribution in rats after oral administration
Experimental: The male mice (20–25 g) and Sprague-Dawley rats (180–220 g) were provided by Laboratory Animal Center of Anhui Medical University (Hefei, China), and the beagle dogs were obtained from Nanjing Bosgene Biotech Co., Ltd. All the animals were housed under control conditions (temperature 23 ± 2 °C, humidity 50% ± 5%, 12 h dark/light cycle) with standardized diet and acclimatized for 7 days, prior to the experiments.
Seventy-two mice or rats were randomly and equally divided into two groups. […] Tissues (liver, lung, and kidney) were promptly harvested at 1, 2, 4, 6, 9, 12, 24, 48, 72, and 144 h. Each tissue sample was homogenized (Tissue sample:saline ratio of 1:5, w/v). Tissue samples were stored at − 80 °C until further analysis. The preparation process for analysis was the same as described above for plasma.
The LC-MS/MS system consisted of a SHIMADZU LC-30 AD series HPLC system (Shimadzu, Kyoto, Japan) and API4000 triple quadrupole mass spectrometer (Applied Biosystems Sciex, Ont., Canada) with electrospray ionization (ESI) source. Separation was carried out on a C18 column (2.1 × 100 mm, 5 μm, Hanbon, Jiangsu, China) kept at 40 °C. The mobile phase consisted of water (containing 0.1% formic acid, mobile phase A) and methanol (mobile phase B) with rate set at 0.3 mL/min. The optimal gradient elution curve included 0–1.0 min, 10% B; a linear increase to 90% a within 0.5 min; 90% B for 3.5 min; a linear decrease to 10% B within 0.5 min. 10% B for 1.5 min; 7.00 min, stop.
LC-MS/MS was performed in the positive and multiple reaction monitoring (MRM) mode.

in vivo = conditions: mouse, iv, 1 mg/kg, I.V. 1 mg/kg; for AUC(0-inf): AUC0-∞; for AUC(0-inf) / AUC(0-t) / Cmax / MRT last / MRT inf / Tmax: mice; for AUC(0-t): AUC0-t; for MRT last: MRT0-t; for MRT inf: MRT0-∞; for half-life: T1/2, mice
TNF-α = TNF-α protein level in M1 polarized THP-1 macrophages (ELISA); format: cell-based, Human; conditions: 0.1 μM, 36 h
Experimental: Results are expressed as means ±S.D. (n = 3).
Human monocytic THP-1 cells were maintained in RPMI 1640 medium (Corning, USA) supplemented with 2% L-glutamine,10% fetal bovine serum (FBS), 1% penicillin/ streptomycin and […] ß-mercaptoethanol. THP-1 monocytes are differentiated into macrophages by 24 h incubation with 150 nM phorbol 12-myristate 13-acetate (PMA, Sigma, P8139) followed by 24 h incubation in RPMI medium. Macrophages were polarized in M1 macrophages by incubation with 20 ng/ml of IFN-γ (R&D system, #285-IF) and 100 ng/ml of LPS (Sigma, #8630). […] Cytokine secretion in the culture medium was assayed using an ELISA kit according to the procedure recommended by the supplier (IL-6 (MultiSciences, 70-EK106/2–96), TNFα (MultiSciences,70-EK182HS-96)).

in vitro = conditions: African green monkey

`CC[C@H]1CN2CCc3cc(OC)c(OC)cc3[C@@H]2C[C@@H]1C[C@H]1NCCc2cc(OC)c(OC)cc21` [Emetine] gave a Lung concentration ([1]; 1 mg/kg I.V. (12 h value of Table s2)) of 3.8 µM, a Kidney concentration ([1]; I.V. 1 mg/kg, 0.033 h) of 8.52 ± 1.25 µM and a Liver concentration ([1]; I.V. 1 mg/kg, 0.033 h) of 4.11 ± 1.25 µM. For the same molecule, the Plasma concentration ([1]; I.V. 1 mg/kg, 0.033 h) was 150 ± 60 nM, the Kidney concentration ([1]; I.V. 1 mg/kg, 0.083 h) was 8.04 ± 0.57 µM and the Liver concentration ([1]; I.V. 1 mg/kg, 0.083 h) was 3.05 ± 0.23 µM. For the same molecule, the Lung concentration ([1]; I.V. 1 mg/kg, 0.083 h) was 16.5 ± 1.59 µM, the Plasma concentration ([1]; I.V. 1 mg/kg, 0.083 h) was 110 ± 20 nM and the Kidney concentration ([1]; I.V. 1 mg/kg, 0.5 h) was 9.48 ± 1.10 µM. The Liver concentration ([1]; I.V. 1 mg/kg, 0.5 h) was 5.01 ± 1.13 µM, the Lung concentration ([1]; I.V. 1 mg/kg, 0.5 h) was 10.3 ± 1.45 µM and the Plasma concentration ([1]; I.V. 1 mg/kg, 0.5 h) was 40 ± 20 nM. It also gave a Kidney concentration ([1]; I.V. 1 mg/kg, 1 h) of 9.24 ± 0.44 µM, a Liver concentration ([1]; I.V. 1 mg/kg, 1 h) of 4.78 ± 0.43 µM and a Lung concentration ([1]; I.V. 1 mg/kg, 1 h) of 7.73 ± 1.22 µM. For the same molecule, the Plasma concentration ([1]; I.V. 1 mg/kg, 1 h) was 30 ± 6 nM, the Kidney concentration ([1]; I.V. 1 mg/kg, 2 h) was 9.04 ± 0.15 µM and the Liver concentration ([1]; I.V. 1 mg/kg, 2 h) was 6.12 ± 1.37 µM. It also gave a Lung concentration ([1]; I.V. 1 mg/kg, 2 h) of 7.12 ± 2.30 µM, a Plasma concentration ([1]; I.V. 1 mg/kg, 2 h) of 12 ± 3 nM and a Kidney concentration ([1]; I.V. 1 mg/kg, 4 h) of 6.16 ± 0.77 µM. It also gave a Liver concentration ([1]; I.V. 1 mg/kg, 4 h) of 6.46 ± 0.57 µM, a Lung concentration ([1]; I.V. 1 mg/kg, 4 h) of 5.85 ± 1.20 µM and a Plasma concentration ([1]; I.V. 1 mg/kg, 4 h) of 7 ± 1 nM. For the same molecule, the Liver concentration ([1]; I.V. 1 mg/kg, 6 h) was 6.87 ± 0.65 µM, the Lung concentration ([1]; I.V. 1 mg/kg, 6 h) was 5.42 ± 0.13 µM and the Plasma concentration ([1]; I.V. 1 mg/kg, 6 h) was 9 ± 4 nM. It also gave a Kidney concentration ([1]; I.V. 1 mg/kg, 9 h) of 5.96 ± 0.76 µM, a Liver concentration ([1]; I.V. 1 mg/kg, 9 h) of 9.22 ± 0.81 µM and a Lung concentration ([1]; I.V. 1 mg/kg, 9 h) of 5.63 ± 1.00 µM. The Plasma concentration ([1]; I.V. 1 mg/kg, 9 h) was 8 ± 4 nM, the Kidney concentration ([1]; I.V. 1 mg/kg, 12 h) was 4.29 ± 0.79 µM and the Liver concentration ([1]; I.V. 1 mg/kg, 12 h) was 8.17 ± 1.46 µM. For the same molecule, the Lung concentration ([1]; I.V. 1 mg/kg, 12 h) was 3.77 ± 0.96 µM, the Plasma concentration ([1]; I.V. 1 mg/kg, 12 h) was 7 ± 5 nM and the Kidney concentration ([1]; I.V. 1 mg/kg, 48 h) was 0.879 ± 0.278 µM. For the same molecule, the Liver concentration ([1]; I.V. 1 mg/kg, 48 h) was 1.67 ± 0.872 µM, the Lung concentration ([1]; I.V. 1 mg/kg, 48 h) was 1.67 ± 0.28 µM and the Liver concentration ([1]; I.V. 1 mg/kg, 72 h) was 0.620 ± 0.024 µM. For the same molecule, the Lung concentration ([1]; I.V. 1 mg/kg, 72 h) was 0.852 ± 0.075 µM, the Kidney concentration ([1]; I.V. 1 mg/kg, 144 h) was 0.174 ± 0.018 µM and the Liver concentration ([1]; I.V. 1 mg/kg, 144 h) was 0.129 ± 0.041 µM. For the same molecule, the Lung concentration ([1]; I.V. 1 mg/kg, 144 h) was 0.263 ± 0.034 µM, the AUMC0-t ([1]; I.V. 1 mg/kg, Kidney) was 193,238 hr*hr.*ng/mL and the “AUMC0-∞” value ([1]; I.V. 1 mg/kg, Kidney) was 2,810,677 hr*hr.*ng/mL. The AUMC0-t ([1]; I.V. 1 mg/kg, Liver) was 275,511 hr*hr.*ng/mL, the “AUMC0-∞” value ([1]; I.V. 1 mg/kg, Liver) was 3,897,180 hr*hr.*ng/mL and the AUMC0-t ([1]; I.V. 1 mg/kg, Lung) was 181,502 hr*hr.*ng/mL. For the same molecule, the “AUMC0-∞” value ([1]; I.V. 1 mg/kg, Lung) was 1,038,814 hr*hr.*ng/mL, the “SARS-CoV-2 specific nucleocapsid level, anti-replication effect” value ([2]; Vero cells infected […], then drug 24 h) was “dose-dependently decreased” and the “SARS-CoV-2 specific nucleocapsid level, anti-entry effect” value ([2]; Vero cells pretreated with drug […], virus […], 24 h) was “confirmed this trend”. The EC50 (SARS-CoV-2) was 19 nM, the Rat lung con. ([3]; 1 mg/kg (P.O.) single dose, 1 h) was 0.15 ± 0.03 ng/mL and the Rat lung con. ([3]; 1 mg/kg (P.O.) single dose, 2 h) was 0.26 ± 0.06 ng/mL. It also gave a Rat lung con. ([3]; 1 mg/kg (P.O.) single dose, 4 h) of 0.93 ± 0.32 ng/mL, a Rat lung con. ([3]; 1 mg/kg (P.O.) single dose, 6 h) of 1.01 ± 0.10 ng/mL and a Rat lung con. ([3]; 1 mg/kg (P.O.) single dose, 9 h) of 1.47 ± 0.09 ng/mL. For the same molecule, the Rat lung con. ([3]; 1 mg/kg (P.O.) single dose, 12 h) was 1.61 ± 0.48 ng/mL, the Rat lung con. ([3]; 1 mg/kg (P.O.) single dose, 24 h) was 1.32 ± 0.63 ng/mL and the Rat lung con. ([3]; 1 mg/kg (P.O.) single dose, 48 h) was 0.76 ± 0.11 ng/mL. The Rat lung con. ([3]; 1 mg/kg (P.O.) single dose, 72 h) was 0.36 ± 0.08 ng/mL, the Rat lung con. ([3]; 1 mg/kg (Q.D.× 3 days, P.O.), 1 h) was 5.78 ± 0.61 ng/mL and the Rat lung con. ([3]; 1 mg/kg (Q.D.× 3 days, P.O.), 2 h) was 6.51 ± 0.67 ng/mL. It also gave a Rat lung con. ([3]; 1 mg/kg (Q.D.× 3 days, P.O.), 4 h) of 6.65 ± 1.21 ng/mL, a Rat lung con. ([3]; 1 mg/kg (Q.D.× 3 days, P.O.), 6 h) of 6.96 ± 0.87 ng/mL and a Rat lung con. ([3]; 1 mg/kg (Q.D.× 3 days, P.O.), 9 h) of 8.34 ± 1.09 ng/mL. The Rat lung con. ([3]; 1 mg/kg (Q.D.× 3 days, P.O.), 12 h) was 8.16 ± 1.58 ng/mL, the Rat lung con. ([3]; 1 mg/kg (Q.D.× 3 days, P.O.), 24 h) was 7.25 ± 0.79 ng/mL and the Rat lung con. ([3]; 1 mg/kg (Q.D.× 3 days, P.O.), 48 h) was 5.97 ± 0.81 ng/mL. For the same molecule, the Rat lung con. ([3]; 1 mg/kg (Q.D.× 3 days, P.O.), 72 h) was 4.89 ± 1.35 ng/mL, the Lung concentration ([3]; rats, 1 mg/kg single oral dose, 12 h, 1 mg/kg) was 1.6 µM and the “time of maximum lung concentration (Cmax)” value ([3]; rats, 1 mg/kg/day oral 3 days) was 9 h. The AUC(0-inf) (in vivo; male, Kidney) was 99100 ng·h/mL, the AUC(0-inf) (in vivo; male, Lung) was 65400 ng·h/mL and the AUC(0-t) (in vivo; Kidney) was 37000 ng·h/mL. The AUC(0-t) (in vivo; Liver) was 41300 ng·h/mL, the AUC(0-t) (in vivo; Lung) was 35400 ng·h/mL and the AUC(0-inf) (in vivo; Liver) was 139000 ng·h/mL. For the same molecule, the Cmax (in vivo; Kidney) was 4550 ng/mL, the Cmax (in vivo; Liver) was 4420 ng/mL and the Cmax (in vivo; Lung) was 8580 ng/mL. The MRT last (in vivo; Kidney) was 5.23 h, the MRT last (in vivo; Liver) was 6.67 h and the MRT last (in vivo; Lung) was 5.13 h. For the same molecule, the MRT inf (in vivo; Kidney) was 28.4 h, the MRT inf (in vivo; Liver) was 28 h and the MRT inf (in vivo; Lung) was 15.9 h. It also gave a half-life (in vivo; Kidney) of 20.9 h, a half-life (in vivo; Liver) of 17.3 h and a half-life (in vivo; Lung) of 11.5 h. It also gave a Tmax (in vivo; Kidney) of 0.5 h, a Tmax (in vivo; Liver) of 9 h and a Tmax (in vivo; Lung) of 0.03 h. For the same molecule, the TNF-α expression (TNF-α) was “moderate effect” and the CC50 (in vitro) was 1960 nM.
